The text below walks through data of paper PMC7566913, “Dual Gene Delivery Reagents From Antiproliferative Alkylphospholipids for Combined Antitumor Therapy” (Frontiers in Chemistry, 2020).

Data set [1] relates to A549 cells. The experiment in a line: Cytotoxicity, MTT assay, A549. The class given is cell-based, human. The settings on record: Homo sapiens, A549, 24 h at 37°C. On the procedure:
(§1) The cells were exposed for a 24-h period to increasing concentration of the pro-APLs, ranging from 500 nM to 1 mM, and cell viability was assessed using the MTT colorimetric assay (Mosmann, [1983]). For the three cell lines, viability decreased in a dose-dependent manner in response to APLs and pro-APLs (Supplementary Figures 2–4). Using the best-fit regression curve method, the IC50 value (concentration that provokes 50% inhibition of the cell growth) was calculated for each compound (Table 4). The three cell lines responded to the compounds with varying sensitivities. […] This is attributed to enzyme-mediated hydrolysis of the pro-APL compounds in the complemented culture medium or in the intracellular compartment, competing with pure pH-controlled chemical hydrolysis. According to its structure, a pro-APL may or not be a substrate for specific lipases and, thus, may or not be hydrolyzed into the parent cytotoxic compound. […]
(§2) At confluency, cells were released […]
(§3) Cells were seeded into 96-well plates (Becton-Dickinson) at the required density (vide supra) in 100 µL of serum containing culture medium. […]
(§4) Mitochondrial activity measurements (MTT assay) was used to assess cytotoxicity of the compounds.
(§5) Lipid samples were prepared from a lipid film (3.6 µmol of compound evaporated from an ethanolic solution) hydrated with aqueous glucose 5 % and vigorously vortexed for 20 s before serial dilution in aqueous glucose 5 %. For addition of lipid samples to cell culture, part of the culture medium in the culture plates prepared the day before (25 µL) was removed and replaced by lipid samples (25 µL). Negative control was obtained by adding glucose 5 % to the cells instead of lipoplexes.
(§6) After a 24-h incubation period at 37 °C, culture supernatant was removed, cells were carefully washed with PBS and MTT (100 µL, 0.5 mg/mL) in complete culture medium was added. After a 1-h incubation period at 37 °C, the MTT sol ution was removed and DMSO (100 µL) was added to lyse cells and dissolve reduced MTT. Intensity of MTT reduction was then evaluated by measuring absorbance at 492 nm. Viability of cells treated with lipids or lipoplexes was expressed as the percentage of the absorbance measured in untreated cells. Value for each sample is the mean of triplicate determinations (± SD). IC50 values were determined within the 95 % confidence interval using nonlinear regression analysis with the GraphPad Prism software (GraphPad Software, San […]
(§7) All data are representative of a triplicate determination and are presented as the mean ± SD.
(§8) Statistical significance between treatments was assessed by one-way analysis of variance (ANOVA) followed by the Dunnett multiple comparison test, using the Kaleidagraph 4.5 software (Synergy Software, Reading, PA, USA). Data were considered as statistically significant for p value less than
(In general: Tetrazolium dyes change colour on reduction, which living cells bring about.)

The test system of data set [2] is H292 cells. The experiment in a line: Cytotoxicity, MTT assay, H292. The class given is cell-based, human. As to conditions: Homo sapiens, NCI-H292, H292, 24 h at 37°C. On the procedure:
as §1, §2, §3, §4, §5, §6, §7, §8

For data set [3], the system named is A549 cells. Description: Gene transfer efficiency, pCMV-Gluc luciferase reporter gene assay. As to conditions: A549, N/P 3, 1 eq. DOPE. In kind it is cell-based, human. (In general: Reporter assays use an easily measured gene product as a stand-in for the process of interest.)
Excerpt: The efficacy of the pro-APLs to mediate intracellular delivery of a plasmid DNA was examined in A549 human lung epithelial carcinoma cells using the pCMV-Gluc reporter gene encoding the luciferase of Gaussia princeps. This luciferase is secreted by cells and transgene expression can be conveniently assessed by standard bioluminescence measurements on aliquots of the cell culture supernatant, without need for prior cell lysis. Lipoplexes were formulated in glucose 5% at N/P ratios of 1, 3, and 5, with increasing amounts of DOPE as a helper lipid. They were deposited onto cells in the presence of 10% serum and luciferase activity was measured after 24 h (Figure 3). […] The influence of the nature of the pendant hydrophobic arm was also examined.
To investigate the effect of serum on the gene delivery properties of the APL prodrugs, cells were treated with lipoplexes in the presence of an increasing concentration of serum (Figure 5). Two DNA doses were considered.
Figure 5 Transfection efficiency of pro-APLs ME12 (A), PE12 (B), and EE12 (C) as a function of serum content. Pro-APL/DNA complexes were prepared at N/P 3, with 1 molar eq. of DOPE. A549 cells (6,000 cells/well) were seeded into 96-well plates in 100 μL of culture medium containing 10% serum. Twenty-four hours later, cell supernatant was replaced with culture medium complemented with increasing amounts of serum (from 10 to 75%) just before adding the lipoplexes (0.2 and 0.4 μg of DNA per well; light and deep purple bars, resp.). Control (light blue bar) refers to basal bioluminescence measured in untreated cells. […] Statistical significance vs. control. ***p < 0.001, **p < 0.01, *p < 0.05.
Data set [4] relates to H292 cells. The experiment in a line: Antiproliferative effect of pUNO1-hTRAIL vs pCMV-Gluc lipoplexes, MTT, H292. The settings on record: N/P 3, 1 eq. DOPE. In kind it is cell-based, human. On the procedure:
Cells were treated with lipoplexes prepared from pro-APLs ME12, PE12, and EE12, with increasing dose of pDNA (0.1–0.4 μg per well). The gold standard gene delivery reagent Lipofectamine® 2000 was assayed in parallel for comparison purpose. In order to distinguish the intrinsic cytotoxic effect of the in situ generated APLs from that resulting from TRAIL expression, pCMV-Gluc was assayed in parallel to pUNO1-hTRAIL. Using pCMV-Gluc, the observed cytotoxicity was assumed to result only from the APL antiproliferative activity, whereas results obtained with pUNO1-hTRAIL are a combination of TRAIL activity and APL antiproliferative effect. […] Though the temptation is to take it as an indicator that functional TRAIL was produced, the difference found was not always statistically significant. The activity profile of the three pro-APLs varied according to the cell line. […]
Figure 8 Antiproliferative effect of lipoplexes prepared from ME12 (A), PE12 (B), EE12 (C), and the two DNA plasmids pCMV-Gluc (light bars) and pUNO1-hTRAIL (dark bars), on the three cell lines. […] Lipofectamine®-based lipoplexes (0.1 μg plasmid/well) were prepared according to the optimized experimental conditions determined following the supplier's instructions. Cell viability was measured by the MTT assay. Basal mitochondrial activity measured in untreated cells is set at 100%. […]

The test system of the next data set is sheep RBC. Description: Hemolytic activity, red blood cell leakage assay. As to conditions: 37°C.

Description for sheep RBC: To evaluate this hypothesis, the hemolytic activity of the APLs and pro-APLs was measured. Sheep RBC were incubated for 1 h with escalating doses of aqueous dispersion of the compounds at 37°C. At the end of the incubation period, hemoglobin leakage was determined spectrophotometrically.
Thus, in order to better characterize the hemolytic effect of the pro-APLs, the incubation period has been extended and release of hemoglobin was measured after 24 h.
Red blood cell (RBC) leakage assay was carried out according to a previously described procedure
(Evans et al, 2013). RBC were prepared from defibrinated sheep blood. Briefly, blood sample (5 mL) was centrifuged at 500 x g for 5 min. After removal of the yellow upper layer, an equal volume of

Broadly, the IC50 is the concentration needed to halve the response being measured. Turning to `CCCCCCCCCCCCCCCCCCOP(=O)(OCOC(=O)CCCCCCCCCCC)OC1CC[N+](C)(C)CC1.[Cl-]` (stereo not shown) [PE12, 4-((((Dodecanoyloxy)methoxy)(octadecyloxy)phosphoryl)oxy)-1,1-dimethylpiperidin-1-ium chloride], the IC50 came out at 139 ± 4 µM in the data set with A549 cells [1] and 168 ± 7 µM in the data set on H292 cells [2]. Besides, the “Serum content up to which significant transgene expression was mediated” value in the data set on A549 cells [3] (DNA dose 0.2 μg/well) was “up to 50 % serum”. Also, the “Serum content up to which transfection activity extended” value with A549 cells [3] (DNA dose 0.4 μg/well) was “up to 75 % serum”. Further, in the data set on H292 cells [4], the “Cell death specifically induced by TRAIL” value is on record as “ca. 45%”. Besides, the “HA200 (hemolytic activity at 200 μM)” value is reported as 7.1 ± 0.9% with sheep RBC (1 h) and 20.6 ± 5.9% in the data set on sheep RBC (24 h).
